Data from article PMC11811690 (Angewandte Chemie (International Ed. in English), 2024).

What follows are compounds tested on Rif-resistant Mtb isolate (clinical isolate, rpoB mutant S531L).
Type: cell-based, Mycobacterium tuberculosis
`CC[C@H]1/C=C(\C)[C@@H](O)C/C=C/C=C(\CN(C)Cc2nnc(-c3ccccc3)o2)C(=O)O[C@H]([C@@H](C)O)C/C=C(C)/C=C(\C)[C@@H]1O[C@@H]1OC(C)(C)[C@@H](OC(=O)C(C)C)[C@H](O)[C@@H]1O` [compound 7] was tested, and the “MIC Rif-resistant Mtb isolate, turbidity read-out” value (“MIC Rif-resistant Mtb isolate” for short) was 8 to 16 µg/mL. With `CC[C@H]1/C=C(\C)[C@@H](O)C/C=C/C=C(\CNc2nc3ccccc3s2)C(=O)O[C@H]([C@@H](C)O)C/C=C(C)/C=C(\C)[C@@H]1O[C@@H]1OC(C)(C)[C@@H](OC(=O)C(C)C)[C@H](O)[C@@H]1O` [compound 9] the “MIC Rif-resistant Mtb isolate” value was 8 to 16 µg/mL. With `CC[C@H]1/C=C(\C)[C@@H](O)C/C=C/C=C(\CNc2nc(COc3ccccc3)cs2)C(=O)O[C@H]([C@@H](C)O)C/C=C(C)/C=C(\C)[C@@H]1O[C@@H]1OC(C)(C)[C@@H](OC(=O)C(C)C)[C@H](O)[C@@H]1O` [compound 10] the “MIC Rif-resistant Mtb isolate” value was 8 to 16 µg/mL. In the case of `CC[C@H]1/C=C(\C)[C@@H](O)C/C=C/C=C(\CNc2nc(-c3ccccc3)cs2)C(=O)O[C@H]([C@@H](C)O)C/C=C(C)/C=C(\C)[C@@H]1O[C@@H]1OC(C)(C)[C@@H](OC(=O)C(C)C)[C@H](O)[C@@H]1O` [compound 13], the “MIC Rif-resistant Mtb isolate” value is reported as 8 to 16 µg/mL. For `CC[C@H]1/C=C(\C)[C@@H](O)C/C=C/C=C(\CNCc2nnc(-c3ccccc3)o2)C(=O)O[C@H]([C@@H](C)O)C/C=C(C)/C=C(\C)[C@@H]1O[C@@H]1OC(C)(C)[C@@H](OC(=O)C(C)C)[C@H](O)[C@@H]1O` [compound 16], the “MIC Rif-resistant Mtb isolate” value was 4 to 8 µg/mL. In the case of `CC[C@H]1/C=C(\C)[C@@H](O)C/C=C/C=C(\CNCc2nnc(-c3ccc(OC)c(OC)c3Cl)o2)C(=O)O[C@H]([C@@H](C)O)C/C=C(C)/C=C(\C)[C@@H]1O[C@@H]1OC(C)(C)[C@@H](OC(=O)C(C)C)[C@H](O)[C@@H]1O` [compound 18], the “MIC Rif-resistant Mtb isolate” value is reported as 4 to 8 µg/mL. For `CC[C@H]1/C=C(\C)[C@@H](O)C/C=C/C=C(\CNCc2nnc(-c3ccc(C(F)(F)F)cc3)o2)C(=O)O[C@H]([C@@H](C)O)C/C=C(C)/C=C(\C)[C@@H]1O[C@@H]1OC(C)(C)[C@@H](OC(=O)C(C)C)[C@H](O)[C@@H]1O` [compound 23], the “MIC Rif-resistant Mtb isolate” value was 4-8. With `CC[C@H]1/C=C(\C)[C@@H](O)C/C=C/C=C(\CNc2ccc(C#N)cc2)C(=O)O[C@H]([C@@H](C)O)C/C=C(C)/C=C(\C)[C@@H]1O[C@@H]1OC(C)(C)[C@@H](OC(=O)C(C)C)[C@H](O)[C@@H]1O` [compound 24] the “MIC Rif-resistant Mtb isolate” value was 16-32. `CC[C@H]1/C=C(\C)[C@@H](O)C/C=C/C=C(\CNc2ccc(C#N)cn2)C(=O)O[C@H]([C@@H](C)O)C/C=C(C)/C=C(\C)[C@@H]1O[C@@H]1OC(C)(C)[C@@H](OC(=O)C(C)C)[C@H](O)[C@@H]1O` [compound 25] was tested, and the “MIC Rif-resistant Mtb isolate” value was 16-32.
